Our source for the Ki values is patent US8338597B2, “Pyridones useful as inhibitors of kinases” (Vertex Pharmaceuticals Incorporated, priority 2004, dated 2012).

Holding throughout (type): biochemical
For assay [1], the target named is T1, Rlk (Homo sapiens, UniProt P42681).
T1 sequence (P42681 1-527): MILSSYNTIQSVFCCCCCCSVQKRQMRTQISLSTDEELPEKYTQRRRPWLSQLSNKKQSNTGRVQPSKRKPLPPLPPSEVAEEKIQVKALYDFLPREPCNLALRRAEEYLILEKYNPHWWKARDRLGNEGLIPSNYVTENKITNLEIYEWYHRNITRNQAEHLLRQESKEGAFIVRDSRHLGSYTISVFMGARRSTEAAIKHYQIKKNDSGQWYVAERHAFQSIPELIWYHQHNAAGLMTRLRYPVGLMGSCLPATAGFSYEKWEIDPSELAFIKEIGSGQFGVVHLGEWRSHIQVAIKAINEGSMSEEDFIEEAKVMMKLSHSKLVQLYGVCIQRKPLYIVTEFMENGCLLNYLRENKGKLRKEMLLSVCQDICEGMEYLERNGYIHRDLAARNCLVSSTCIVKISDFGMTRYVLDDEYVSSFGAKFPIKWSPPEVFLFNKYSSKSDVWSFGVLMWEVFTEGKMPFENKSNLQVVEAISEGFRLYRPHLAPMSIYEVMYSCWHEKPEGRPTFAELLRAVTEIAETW
The experiment in a line: RLK inhibition assay, standard coupled enzyme assay. The conditions noted are these: 100 μM ATP, 40 nM Rlk, 30° C. On the procedure:
Compounds were screened for their ability to inhibit Rlk using a standard coupled enzyme assay (Fox et al., Protein Sci., (1998) 7, 2249). Assays were carried out in a mixture of 20 mM MOPS (pH 7.0), 10 mM MgCl2, 0.1% BSA and 1 mM DTT. Final substrate concentrations in the assay were 100 μM ATP (Sigma Chemicals) and 10 μM peptide (Poly Glu:Tyr 4:1). Assays were carried out at 30° C. and in the presence of 40 nM Rlk. Final concentrations of the components of the coupled enzyme system were 2.5 mM phosphoenolpyruvate, 300 μM NADH, 30 μg/ml pyruvate kinase and 10 μg/ml lactate dehydrogenase.
An assay stock buffer solution was prepared containing all of the reagents listed above, with the exception of ATP and the test compound of interest. 60 μl of the stock solution was placed in a 96 well plate followed by addition of […] of DMSO stock containing serial dilutions of the test compound (typically starting from a final concentration of 7.5 μM). The plate was preincubated for 10 minutes at 30° C. and the reaction initiated by addition of 5 μl of ATP. Initial reaction rates were determined with a Molecular Devices SpectraMax Plus plate reader over a 10 minute time course. IC50 and Ki data were calculated from non-linear regression analysis using the Prism software package (GraphPad Prism version 3.0cx for Macintosh, GraphPad Software, San Diego Calif., USA).

Assay [2] has as its target T2, Itk (Homo sapiens, UniProt Q08881).
T2 sequence (Q08881 1-620): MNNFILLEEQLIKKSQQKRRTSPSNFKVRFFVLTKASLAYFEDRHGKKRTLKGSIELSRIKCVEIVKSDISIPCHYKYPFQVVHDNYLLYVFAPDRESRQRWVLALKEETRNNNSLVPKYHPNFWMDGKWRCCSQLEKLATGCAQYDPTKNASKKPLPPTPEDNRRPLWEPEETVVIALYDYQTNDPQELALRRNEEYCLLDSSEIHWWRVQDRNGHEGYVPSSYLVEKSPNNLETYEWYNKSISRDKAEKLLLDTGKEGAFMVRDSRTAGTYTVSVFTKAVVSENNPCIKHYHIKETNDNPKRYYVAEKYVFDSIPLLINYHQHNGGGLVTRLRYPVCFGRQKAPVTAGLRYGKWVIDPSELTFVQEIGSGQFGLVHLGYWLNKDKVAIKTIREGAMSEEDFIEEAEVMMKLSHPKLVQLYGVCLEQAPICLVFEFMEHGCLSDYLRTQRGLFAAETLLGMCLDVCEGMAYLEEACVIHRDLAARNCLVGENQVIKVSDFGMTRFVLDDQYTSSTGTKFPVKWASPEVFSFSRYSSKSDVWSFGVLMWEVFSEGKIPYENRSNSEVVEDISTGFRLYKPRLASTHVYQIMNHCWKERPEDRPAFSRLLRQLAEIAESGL
The assay can be described thus: ITK inhibition assay, radioactive-phosphate incorporation. Conditions: [γ-33P]ATP, SAM68 peptide, 25° C. On the procedure:
Assays were carried out in a mixture of 20 mM MOPS (pH 7.0), 10 mM MgCl2, 0.1% BSA and 1 mM DTT. […] Assays were carried out at 25° C. in the presence of 50 nM Itk. An assay stock buffer solution was prepared containing all of the reagents listed above, with the exception of ATP and the test compound of interest.
The reaction was stopped after 10 minutes by the addition of […] 0.2M phosphoric acid+0.01% TWEEN 20. A multiscreen phosphocellulose filter 96-well plate (Millipore, Cat no. MAPHN0B50) was pretreated with 100 μL 0.2M phosphoric acid+0.01% TWEEN 20 prior to the addition of […] of the stopped assay mixture. The plate was washed with 4×200 μL 0.2M phosphoric acid+0.01% TWEEN 20.
Ki(app) data were calculated from non-linear regression analysis of the initial rate data using the Prism software package (GraphPad Prism version 3.0cx for Macintosh, GraphPad Software, San Diego Calif., USA).

Assay [3] deals with T2, Itk. The experiment in a line: ITK inhibition assay (UV), standard coupled enzyme assay. The conditions noted are these: 100 μM ATP, 100 nM Itk, 25° C. The procedure: Assays were carried out in a mixture of 20 mM MOPS (pH 7.0), 10 mM MgCl2, 0.1% BSA, 1 mM DTT, 2.5 mM phosphoenolpyruvate, 300 μM NADH, 30 μg/ml pyruvate kinase and 10 μg/ml lactate dehydrogenase. […]
An assay stock buffer solution was prepared containing all of the reagents listed above, with the exception of ATP and the test compound of interest. […] The plate was preincubated for 10 minutes at 25° C. and the reaction initiated by addition of 5 μl of ATP. Initial reaction rates were determined with a Molecular Devices SpectraMax Plus plate reader over a 10 minute time course. IC50 and Ki data were calculated from non-linear regression analysis using the Prism software package (GraphPad Prism version 3.0cx for Macintosh, GraphPad Software, San Diego Calif., USA).

With `O=C(Nc1cc(-c2ccncc2)c[nH]c1=O)c1ccc(CCl)cc1` [Compound I-5], the inhibition constant Ki – broadly, the dissociation constant of the complex between target and ligand, obtained from inhibition or displacement – in assay [1] is above 1000 nM; in assay [2], 100 to 1000 nM; in assay [3], 100 to 1000 nM. In the case of `O=C(Nc1cc(-c2ccncc2)c[nH]c1=O)c1ccc(N2CCCC2)cc1` [Compound I-69], the inhibition constant Ki in assay [2] and in assay [3] was 100 to 1000 nM throughout.

Take `CN1CCN(c2ccc(C(=O)Nc3cc(-c4ccncc4)c[nH]c3=O)cc2)CC1` [Compound I-70]: the Ki in assay [3] was below 100 nM. On the same count and under the same terms, the value for `O=C(Nc1cc(-c2ccncc2)c[nH]c1=O)c1ccc(N2CCCCCC2)cc1` [Compound I-76] was below 100 nM; that for `O=C(Nc1cc(-c2ccncc2)c[nH]c1=O)c1ccc(N2CCCNCC2)cc1` [Compound I-78] was below 100 nM; that for `CN(C)CCCNc1ccc(C(=O)Nc2cc(-c3ccncc3)c[nH]c2=O)cc1` [Compound I-79] was below 100 nM. On the same count and under the same terms, the result for `NCCCNc1ccc(C(=O)Nc2cc(-c3ccncc3)c[nH]c2=O)cc1` [Compound I-80] reads below 100 nM. Take `O=C(Nc1cc(-c2ccncc2)c[nH]c1=O)c1ccc(CN2CCOCC2)cc1` [Compound I-82]: the Ki in assay [2] and in assay [3] was 100 to 1000 nM throughout. On to `O=C(Nc1cc(-c2ccncc2)c[nH]c1=O)c1ccc(CN2CCNCC2)cc1` [Compound I-83], for which the Ki in assay [2] and in assay [3] was 100 to 1000 nM in each case. Turning to `CNCCN(C)Cc1ccc(C(=O)Nc2cc(-c3ccncc3)c[nH]c2=O)cc1` [Compound I-84], the Ki in assay [2] and in assay [3] was 100 to 1000 nM each time.

For `CSc1nccc(-c2c[nH]c(=O)c(NC(=O)c3ccc(C(C)(C)C)cc3)c2)n1` [II-4, 4-tert-Butyl-N-[5-(2-methylsulfanyl-pyrimidin-4-yl)-2-oxo-1,2-dihydro-pyridin-3-yl]-benzamide], the Ki in assay [2] and in assay [3] was 100 to 1000 nM each time.

Turning to `CC(C)(C)c1ccc(C(=O)Nc2cc(-c3ccnc(N[C@@H]4CCNC4)n3)c[nH]c2=O)cc1` [II-31], the Ki in assay [1] was below 1000 nM; in assay [2], below 100 nM. With `CNCCNc1cccc(-c2c[nH]c(=O)c(NC(=O)c3ccc(C(C)(C)C)cc3)c2)n1` [II-35], the inhibition constant (Ki) in assay [1] was below 1000 nM; in assay [2] it was below 100 nM. Consider `CNCCNc1cc(-c2c[nH]c(=O)c(NC(=O)c3ccc(C(C)(C)C)cc3)c2)ncn1` [II-38], for which the Ki in assay [1] is above 1000 nM; in assay [2] it was 100 to 1000 nM. `CNc1nccc(-c2c[nH]c(=O)c(NC(=O)c3ccc(N4CCCCC4)cc3)c2)n1` [II-40, N-(1,2-dihydro-5-(2-(methylamino)pyrimidin-4-yl)-2-oxopyridin-3-yl)-4-(piperidin-1-yl)benzamide]: the Ki in assay [1] was below 1000 nM; in assay [2], below 100 nM. For `CNCCN(C)c1nccc(-c2c[nH]c(=O)c(NC(=O)c3ccc(N4CCCCC4)cc3)c2)n1` [II-65], in that order: above 1000 nM and below 100 nM.

As to `CNCCNc1cccc(-c2c[nH]c(=O)c(NC(=O)c3ccc(N4CCCCC4)cc3)c2)c1` [II-75], the figures for the Ki in assay [1] and in assay [2] were above 1000 nM and 100 to 1000 nM, respectively.

As to `CNc1nccc(-c2c[nH]c(=O)c(NC(=O)c3ccc(N4CCN(CCCOC)CC4)cc3)c2)n1` [II-79], the values for the inhibition constant Ki in assay [1] and in assay [2] were below 1000 nM and below 100 nM, respectively. For `CNc1nccc(-c2c[nH]c(=O)c(NC(=O)c3ccc(N4CCN(C(C)=O)CC4)cc3)c2)n1` [II-81], in that order: below 1000 nM and below 100 nM.

Regarding `CC(C)(C)c1ccc(C(=O)Nc2cc(C3=CC(=O)CCC3)c[nH]c2=O)cc1` [II-83], the inhibition constant (Ki) in assay [1] is above 1000 nM; in assay [2], 100 to 1000 nM. For `O=C1C=C(c2c[nH]c(=O)c(NC(=O)c3ccc(N4CCCCC4)cc3)c2)CCC1` [II-85], in that order: above 1000 nM and 100 to 1000 nM. On the same counts, the results for `O=C1C=C(c2c[nH]c(=O)c(NC(=O)c3ccc(N4CCCCC4)cc3)c2)CC1` [II-87] are above 1000 nM and 100 to 1000 nM.

On to `CNc1cncc(-c2c[nH]c(=O)c(NC(=O)c3ccc(OCCC4CCNCC4)cc3)c2)n1` [II-143], for which the Ki was above 1000 nM in assay [1] and below 100 nM in assay [2]. For `CNc1cncc(-c2c[nH]c(=O)c(NC(=O)c3ccc(N4CCN(CCO)CC4)cc3)c2)n1` [II-148], in that order: above 1000 nM and below 100 nM. On the same counts, the results for `CNc1cc(C#N)cc(-c2c[nH]c(=O)c(NC(=O)c3ccc(N4CCNCC4)cc3)c2)n1` [II-160] are above 1000 nM and below 100 nM.

Consider `CNc1cncc(-c2c[nH]c(=O)c(NC(=O)c3ccc(NC4CCNCC4)cc3)c2)n1` [II-163], for which the inhibition constant Ki in assay [1] is above 1000 nM; in assay [2], below 100 nM. On the same counts, the results for `CNc1cncc(-c2c[nH]c(=O)c(NC(=O)c3ccc(N(C)CCN(C)C)cc3)c2)n1` [II-164] are above 1000 nM and below 100 nM.

With `CNc1cncc(-c2c[nH]c(=O)c(NC(=O)c3ccc(N4CC[C@@H](N(C)C)C4)cc3)c2)n1` [II-166], the Ki in assay [1] is above 1000 nM; in assay [2], below 100 nM.

`CNc1cncc(-c2c[nH]c(=O)c(NC(=O)c3ccc(NCCCn4ccnc4)cc3)c2)n1` [II-168]: the inhibition constant Ki was above 1000 nM in assay [1] and below 100 nM in assay [2]. In the case of `CNc1cc(F)cc(-c2c[nH]c(=O)c(NC(=O)c3ccc(N4CCC[C@H]4CN4CCCC4)cc3)c2)n1` [II-171], the Ki in assay [1] is above 1000 nM; in assay [2], below 100 nM. As to `CNc1cncc(-c2c[nH]c(=O)c(NC(=O)c3ccc(N4CCC[C@H]4CN4CCCC4)cc3)c2)c1` [II-178], the inhibitory constant (Ki) in assay [1] was above 1000 nM; in assay [2] it was below 100 nM. Take `CNc1cc(C#N)cc(-c2c[nH]c(=O)c(NC(=O)c3ccc(N4CCC[C@H]4CN4CCCC4)cc3)c2)c1` [II-179]: the results for the inhibition constant (Ki) in assay [1] and in assay [2] were above 1000 nM and below 100 nM, respectively.

In the case of `CC(C)c1ccc(NC(=O)c2cc(-c3ccncc3)c[nH]c2=O)cc1` [III-4], the figures for the inhibition constant Ki in assay [1] and in assay [2] were above 1000 nM and 100 to 1000 nM, respectively. For `CC(C)(C)c1ccc(NC(=O)c2cc(-c3ccncc3)c[nH]c2=O)cc1` [III-5], in that order: above 1000 nM and 100 to 1000 nM.
